# Tests used:
# Assay type in all cases: cell-based, Human
# MCF-7 cells [1] = assay: [3H]-thymidine incorporation assay in MCF-7 cells; conditions: serum-starved, 24 hours
# Method: (§1) Cells were seeded in 12-well plates at approximately 50,000 cells/well and incubated at 37° C. After 24 hours, the wells were rinsed with PBS and replaced with serum-free medium containing the appropriate concentration of the test compounds. After another 24-hour incubation at 37° C., 1 μCi of [^3H]-thymidine was added to each well and incubated at 37° C. for 16 hours. […] The lysate was then mixed with 3 mL of liquid scintillation cocktail (Beckman Coulter, Inc., Brea, Calif.), and radioactivity was measured by liquid scintillation counting using Beckman Coulter LS6000IC Scintillation Counter. Data are shown as CPM incorporated compared to the control cells.
# (§2) CF-7 cells and MDA-MB-231 cells were seeded out on E-Plates and allowed to settle. Cells were stimulated with MNF. Cellular proliferation and adherence was measured every 15 minutes using xCELLigence RTCA station. The serum-starved cells were incubated with various amounts of (R,R′)-MNF concentrations for 24 hours and the levels of [3H]thymidine incorporation were measured.
# MDA-MB-231 cells [2] = assay: [3H]-thymidine incorporation assay in MDA-MB-231 cells; conditions: serum-starved, 24 hours
# Method: as §1, §2
# MCF-7 cells [3] = assay: cell cycle analysis in MCF-7 cells
# Method: (§3) Cell cycle distributions were performed by flow cytometry on propidium iodide-stained nuclei prepared by the NEVI technique. DNA histograms of at least 10,000 cells acquired on a Becton-Dickinson FACScanto II (BD Biosciences, San Jose, Calif.) were deconvoluted using the Multicycle program (Phoenix Flow Systems) for estimates of the percentage of cells in the G0/1, S, and G2+M phases of the cell cycle. Debris and doublets were removed from the analysis by software algorithms.
# ERK [4] = assay: basal phosphorylation levels of ERK in MDA-MB-231 cells; conditions: serum starved for 3 hours, compound for 15 minutes
# Method: (§4) Levels of ERK1/2 and its phosphorylated forms were determined using PathScan ELISA kits according to manufacturer's protocol (Perkin Elmer Alphascreen Surefire ERK1/2 assay kit, cat no. TGRES500).
# (§5) (R,R′)-MNF decreased basal phosphorylation levels of ERK. MCF-7 and MDA-MB-231 cells were serum starved for 3 hours and subjected to compound of interest or vehicle for 15 minutes. The levels of phosphorylated ERK were determined in MNF-treated MCF-7 and MDA-MB-231 cells.
# MCF-7 cells [5] = assay: proliferation of MCF-7 cells (xCELLigence RTCA)
# Method: (§6) CF-7 cells and MDA-MB-231 cells were seeded out on E-Plates and allowed to settle. Cells were stimulated with MNF. Cellular proliferation and adherence was measured every 15 minutes using xCELLigence RTCA station. The serum-starved cells were incubated with various amounts of (R,R′)-MNF concentrations for 24 hours and the levels of [3H]thymidine incorporation were measured. MNF inhibited the incorporation of radiolabelled thymidine in both CF-7 cells and MDA-MB-231 cells.
# Cyclin B1 = assay: expression of Cyclin B1 in MCF-7 cells
# Method: (§7) Cells were lysed with RIPA buffer containing EGTA and EDTA (Boston BioProducts, Ashland, Mass.). The lysis buffer was mixed with a protease inhibitor cocktail (Sigma-Aldrich). Protein concentrations were measured using the bicinchoninic acid reagent (Thermo-Pierce Biotechnology, Inc., Rockford, Ill.). Proteins (20 μg/well) were separated on 4-12% precast gels (Invitrogen, Carlsbad, Calif.) using SDS-polyacrylamide gel electrophoresis under reducing conditions and were electrophoretically transferred onto polyvinylidene fluoride membrane (Invitrogen). Western blots were performed according to standard methods. The visualization of immunoreactive bands was performed using the ECL Plus Western Blotting Detection System (GE Healthcare, NJ) and their quantification was done by volume densitometry using Image J software and normalization to β-actin. The primary antibody for β2-APv was obtained from Enzo Life Sciences, Inc. (Cat. # AD 1-905-742-100, Farmingdale, N.Y.); rabbit anti-phospho-Akt (Ser-473), phospho-ERK1/2, total Akt and total ERK2 were from Cell Signaling Technology (Beverly, Mass.), and anti-P-actin was from Abeam (Cambridge, Mass.). The antibodies were used at a dilution recommended by the manufacturer.
# (§8) The effect of MNF on expression of the cell cycle regulatory proteins Cyclin D1 and Cyclin B1 in MCF-7 cells and MDA-MB-231 cells was evaluated. […]
# Cyclin D1 [6] = assay: expression of Cyclin D1 in MDA-MB-231 cells
# Method: as §7, §8
# MDA-MB-231 cells [7] = assay: cell cycle analysis in MDA-MB-231 cells
# Method: as §3
# [8] = tested on: Multidrug resistance protein (Mdr); assay: expression of Multidrug resistance protein (Mdr) in MCF-7 cells
# Excerpt: As shown therein, MNF reduces the expression of Multidrug resistance protein (Mdr) in MCF-7 cells.
# MDA-MB-231 cells [9] = assay: proliferation of MDA-MB-231 cells (xCELLigence RTCA)
# Method: as §6
# Cyclin D1 [10] = assay: expression of Cyclin D1 in MCF-7 cells
# Method: as §7, §8
# ERK [11] = assay: basal phosphorylation levels of ERK in MCF-7 cells; conditions: serum starved for 3 hours, compound for 15 minutes
# Method: as §4, §5
Structure (SMILES),blocking of the inhibitory effect of MNF on [3H]thymidine incorporation (MCF-7 cells [1]; with MNF),blocking of the inhibitory effect of MNF on [3H]thymidine incorporation (MDA-MB-231 cells [2]; with MNF),arrest of the cell cycle (MCF-7 cells [3]),basal phosphorylation levels of ERK (ERK [4]),levels of [3H]thymidine incorporation (MCF-7 cells [1]),growth of cancer cells (MCF-7 cells [5]),proliferation (MCF-7 cells [5]),expression of Cyclin B1 (Cyclin B1),expression of Cyclin D1 (Cyclin D1 [6]),arrest of the cell cycle (MDA-MB-231 cells [7]),expression of Multidrug resistance protein (Mdr) [8],growth of cancer cells (MDA-MB-231 cells [9]; MDA-MB-231 cells),proliferation (MDA-MB-231 cells [9]; MDA-MB-231 cells),sensitivity to MNF compared with MCF-7 cancer cells (MDA-MB-231 cells [9]; MDA-MB-231 cells vs MCF-7 cells),expression of Cyclin D1 (Cyclin D1 [10]),levels of [3H]thymidine incorporation (MDA-MB-231 cells [2]),basal phosphorylation levels of ERK (ERK [11])
"Cc1ccc(OCC(O)C(C)NC(C)C)c2c1CCC2 (centres unmarked) [ICI 118,551, 3-(isopropylamino)-1-[(7-methyl-4-indanyl)oxy]butan-2-ol, reference compound]",not,not,,,,,,,,,,,,,,,
"COc1ccc(C[C@@H](C)NC[C@H](O)c2cc(O)cc(O)c2)c2ccccc12 [MNF, (R,R′)-4′-methoxy-1-naphthylfenoterol]",,,G2/M phase arrested cell population was increased,decreased,inhibited,inhibit,inhibit,reduced,reduced,arrested at G1/S phase,reduces,inhibit,inhibit,significantly more sensitive,unchanged,inhibited,decreased
